Laboratory results reported in patent US5444063A, “Enantiomerically pure β-D-dioxolane nucleosides with selective anti-Hepatitis B virus activity” (priority 1992, dated 1995).
Values joined by “and” are separate entries in the source; they are usually repeats but may differ in a detail not shown here. Identical values can stand only once. Like-named read-outs stand apart in the source and are kept apart here.

Assays:
[1] = Toxicity analysis of test compounds in 2.2.15 cells (neutral red dye uptake); assay type: cell-based; conditions: human
Protocol: Toxicity analyses were performed in order to assess whether any observed antiviral effects are due to a general effect on cell viability. The method used was based on the uptake of neutral red dye, a standard and widely used assay for cell viability in a variety of virus-host systems, including HSV (herpes simplex virus) and HIV. Details of the procedure are provided in the toxicity table legends.
The test compounds were used in the form of 40 mM stock solutions in DMSO (frozen on dry ice). Daily aliquots of the test samples were made and frozen at -20° C. so that each individual aliquot would be subjected to a single freeze-thaw cycle. The daily test aliquots were thawed, suspended into culture medium at room temperature and immediately added to the cell cultures° The compounds were tested at 0.0 and 1 μM for antiviral activity. The compounds were tested for toxicity at concentrations up to 300 μM.
Toxicity analyses were performed in 96-well flat bottomed tissue culture plates. Cells for the toxicity analyses were cultured and treated with test compounds with the same schedule as used for the antiviral evaluations. Each compound was tested at 4 concentrations, each in triplicate cultures. Uptake of neutral red dye was used to determine the relative level of toxicity. The absorbance of internalized dye at […] (A510) was used for the quantitative analysis. Values are presented as a percentage of the average A510 values (±standard deviations) in 9 separate cultures of untreated cells maintained on the same 96-well plate as the test compounds.

HBV = assay: Effect of nucleosides on HBV production in 2.2.15 cells (HBV virion DNA and intracellular HBV DNA); assay type: cell-based, Hepatitis B virus; conditions: for HBV virion DNA, day 0 / HBV virion DNA, day 3 / HBV virion DNA, day 6 / HBV virion DNA, day 9: individual culture; for HBV virion DNA, day 0, mean / HBV virion DNA, day 3, mean / HBV virion DNA, day 6, mean / HBV virion DNA, day 9, mean / Intracellular HBV DNA on Day 10, Mono, mean / Intracellular HBV DNA on Day 10, RI, mean: mean of 4 cultures; for inhibition at 1 µM / inhibition: Hepatitis B virus
Protocol: The ability of β-D-dioxolane-nucleosides to inhibit HBV can be measured by various experimental techniques. The assay used herein to evaluate the ability of the disclosed compounds to inhibit the replication of HBV is described in detail in Korba and Gerin, Antiviral Res. 19:55-70 (1992). […] The other compounds disclosed herein are evaluated similarly.
The antiviral evaluations were performed on two separate passages of cells, two cultures per passage (4 cultures total). All wells, in all plates, were seeded at the same density and at the same time.
Due to the inherent variations in the levels of both intracellular and extracellular HBV DNA, only depressions greater than 3.0-fold (for HBV virion DNA) or 2.5-fold (for HBV DNA replication intermediates) from the average levels for these HBV DNA forms in untreated cells are generally considered to be statistically significant [P<0.05] (Korba and Gerin, Antiviral Res. 19: 55-70, 1992). The levels of integrated HBV DNA in each cellular DNA preparation (which remain constant on a per cell basis in these experiments) were used to calculate the levels of intracellular HBV DNA forms, thereby eliminating technical variations inherent in the blot hybridization assays.
The test compounds were used in the form of 40 mM stock solutions in DMSO (frozen on dry ice). Daily aliquots of the test samples were made and frozen at -20° C. so that each individual aliquot would be subjected to a single freeze-thaw cycle. […] The compounds were tested for toxicity at concentrations up to 300 μM.

[2] = 0.1 μM, listed as (-)- -2,6-diNH2-purine-dioxolane
[3] = 1.0 μM ("1.0 M" printed for the 2,6-DiNH2 compound), listed as (-)- -2,6-DiNH2-purine-dioxolane
[4] = 1.0 μM ("1.0 M" printed for the 2,6-DiNH2 compound)
[5] = 0 h, 1.0 μM ("1.0 M" printed for the 2,6-DiNH2 compound), read-out: % inhibition, HBV virion DNA, day 0
[6] = 0 h, read-out: % inhibition, HBV virion DNA, day 0
[7] = 72 h, 1.0 μM ("1.0 M" printed for the 2,6-DiNH2 compound), read-out: % inhibition, HBV virion DNA, day 3
[8] = 72 h, read-out: % inhibition, HBV virion DNA, day 3
[9] = 144 h, 1.0 μM ("1.0 M" printed for the 2,6-DiNH2 compound), read-out: % inhibition, HBV virion DNA, day 6
[10] = 144 h, read-out: % inhibition, HBV virion DNA, day 6
[11] = 216 h, 1.0 μM ("1.0 M" printed for the 2,6-DiNH2 compound), read-out: % inhibition, HBV virion DNA, day 9
[12] = 216 h, read-out: % inhibition, HBV virion DNA, day 9
[13] = 240 h, 1.0 μM ("1.0 M" printed for the 2,6-DiNH2 compound), read-out: % inhibition, intracellular HBV DNA Mono, Day 10
[14] = 240 h, 1.0 μM ("1.0 M" printed for the 2,6-DiNH2 compound), read-out: % inhibition, intracellular HBV DNA RI, Day 10
[15] = 240 h, read-out: % inhibition, intracellular HBV DNA Mono, Day 10
[16] = 240 h, read-out: % inhibition, intracellular HBV DNA RI, Day 10
[17] = 0.1 μM, listed as (-)- -2,6-dioxolane-G
[18] = 1.0 μM ("1.0 M" printed for the 2,6-DiNH2 compound), listed as (-)- -2,6-dioxolane-G

For `Nc1nc(N)c2ncn([C@H]3CO[C@@H](CO)O3)c2n1` [DAPD, (-)-(2R,4R)-2-amino-9-[(2-hydroxymethyl)-1,3-dioxolan-4-yl]adenine], the viability at 10 µM [1] was 99 ± 1%, the viability at 30 µM [1] was 99 ± 3% and the viability at 100 µM [1] was 88 ± 1%. The viability at 300 µM [1] was 49 ± 3%, the “HBV virion DNA, day 0” value (HBV; 0.1 μM) was 77 pg/ml of cultured medium and the “HBV virion DNA, day 0” value (HBV; [2]) was 52 pg/ml of cultured medium and 58 pg/ml of cultured medium and 64 pg/ml of cultured medium. For the same compound, the “HBV virion DNA, day 3” value (HBV; [2]) was 67 pg/ml of cultured medium and 59 pg/ml of cultured medium and 62 pg/ml of cultured medium, the “HBV virion DNA, day 6” value (HBV; [2]) was 28 pg/ml of cultured medium and 34 pg/ml of cultured medium and 35 pg/ml of cultured medium and 26 pg/ml of cultured medium and the “HBV virion DNA, day 9” value (HBV; [2]) was 5 pg/ml of cultured medium and 6 pg/ml of cultured medium and 9 pg/ml of cultured medium and 8 pg/ml of cultured medium. The “HBV virion DNA, day 0, mean” value (HBV; 0.1 μM) was 62.75 pg/ml of cultured medium, the “HBV virion DNA, day 3, mean” value (HBV; 0.1 μM) was 61.75 pg/ml of cultured medium and the “HBV virion DNA, day 6, mean” value (HBV; 0.1 μM) was 30.75 pg/ml of cultured medium. The “HBV virion DNA, day 9, mean” value (HBV; 0.1 μM) was 7.00 pg/ml of cultured medium, the “Intracellular HBV DNA on Day 10, Mono, mean” value (HBV; 0.1 μM) was 2.35 pg/μM of cellular DNA and the “Intracellular HBV DNA on Day 10, RI, mean” value (HBV; 0.1 μM) was 12.00 pg/μM of cellular DNA. The “HBV virion DNA, day 0” value (HBV; [3]) was 66 pg/ml of cultured medium and 70 pg/ml of cultured medium and 74 pg/ml of cultured medium and 61 pg/ml of cultured medium, the “HBV virion DNA, day 3” value (HBV; [3]) was 59 pg/ml of cultured medium and 45 pg/ml of cultured medium and 56 pg/ml of cultured medium and 43 pg/ml of cultured medium and the “HBV virion DNA, day 6” value (HBV; [3]) was 12 pg/ml of cultured medium and 10 pg/ml of cultured medium and 15 pg/ml of cultured medium and 11 pg/ml of cultured medium. The “HBV virion DNA, day 9” value (HBV; 1.0 μM ("1.0 M" printed for the 2,6-DiNH2 compound), zero = undetectable, listed as (-)- -2,6-DiNH2-purine-dioxolane) was 0 pg/ml of cultured medium and 1 pg/ml of cultured medium, the “HBV virion DNA, day 0, mean” value (HBV; [4]) was 67.75 pg/ml of cultured medium and the “HBV virion DNA, day 3, mean” value (HBV; [4]) was 50.75 pg/ml of cultured medium. For the same compound, the “HBV virion DNA, day 6, mean” value (HBV; [4]) was 12.00 pg/ml of cultured medium, the “HBV virion DNA, day 9, mean” value (HBV; [4]) was 0.25 pg/ml of cultured medium and the “Intracellular HBV DNA on Day 10, Mono, mean” value (HBV; [4]) was 1.15 pg/μM of cellular DNA. For the same compound, the “Intracellular HBV DNA on Day 10, RI, mean” value (HBV; [4]) was 2.25 pg/μM of cellular DNA, the inhibition at 1 µM (HBV; [5]) was -7.54% and the inhibition (HBV; [6]) was 0.4%. The inhibition at 1 µM (HBV; [7]) was 21.6%, the inhibition (HBV; [8]) was 4.63% and the inhibition at 1 µM (HBV; [9]) was 84.4%. The inhibition (HBV; [10]) was 59.9%, the inhibition at 1 µM (HBV; [11]) was 99.7% and the inhibition (HBV; [12]) was 90.6%. It also gave an inhibition at 1 µM (HBV; [13]) of 54.5%, an inhibition at 1 µM (HBV; [14]) of 96.9% and an inhibition (HBV; [15]) of 6.93%. The inhibition (HBV; [16]) was 83.7%.

In the case of `Nc1nc2c(ncn2[C@H]2CO[C@@H](CO)O2)c(=O)[nH]1` [Dioxolane-G, (-)-(2R,4R)-9-[(2-hydroxymethyl)-1,3-dioxolan-4-yl]guanine], the viability at 10 µM [1] is reported as 100 ± 3%, the viability at 30 µM [1] is reported as 101 ± 2% and the viability at 100 µM [1] is reported as 88 ± 3%. For the same compound, the viability at 300 µM [1] was 56 ± 3%, the “HBV virion DNA, day 0” value (HBV; [17]) was 51 pg/ml of cultured medium and 59 pg/ml of cultured medium and 74 pg/ml of cultured medium and 67 pg/ml of cultured medium and the “HBV virion DNA, day 3” value (HBV; [17]) was 77 pg/ml of cultured medium and 62 pg/ml of cultured medium and 73 pg/ml of cultured medium and 61 pg/ml of cultured medium. The “HBV virion DNA, day 6” value (HBV; [17]) was 60 pg/ml of cultured medium and 70 pg/ml of cultured medium and 69 pg/ml of cultured medium and 82 pg/ml of cultured medium, the “HBV virion DNA, day 9” value (HBV; [17]) was 18 pg/ml of cultured medium and 12 pg/ml of cultured medium and 14 pg/ml of cultured medium and 11 pg/ml of cultured medium and the “HBV virion DNA, day 0, mean” value (HBV; 0.1 μM) was 62.75 pg/ml of cultured medium. The “HBV virion DNA, day 3, mean” value (HBV; 0.1 μM) was 68.25 pg/ml of cultured medium, the “HBV virion DNA, day 6, mean” value (HBV; 0.1 μM) was 70.25 pg/ml of cultured medium and the “HBV virion DNA, day 9, mean” value (HBV; 0.1 μM) was 13.75 pg/ml of cultured medium. The “Intracellular HBV DNA on Day 10, Mono, mean” value (HBV; 0.1 μM) was 2.35 pg/μM of cellular DNA, the “Intracellular HBV DNA on Day 10, RI, mean” value (HBV; 0.1 μM) was 24.00 pg/μM of cellular DNA and the “HBV virion DNA, day 0” value (HBV; [18]) was 70 pg/ml of cultured medium and 50 pg/ml of cultured medium and 56 pg/ml of cultured medium and 73 pg/ml of cultured medium. For the same compound, the “HBV virion DNA, day 3” value (HBV; [18]) was 86 pg/ml of cultured medium and 59 pg/ml of cultured medium and 56 pg/ml of cultured medium and 62 pg/ml of cultured medium, the “HBV virion DNA, day 6” value (HBV; [18]) was 22 pg/ml of cultured medium and 24 pg/ml of cultured medium and 23 pg/ml of cultured medium and 20 pg/ml of cultured medium and the “HBV virion DNA, day 9” value (HBV; 1.0 μM ("1.0 M" printed for the 2,6-DiNH2 compound), zero = undetectable, listed as (-)- -2,6-dioxolane-G) was 2 pg/ml of cultured medium and 4 pg/ml of cultured medium and 3 pg/ml of cultured medium. The “HBV virion DNA, day 0, mean” value (HBV; [4]) was 62.25 pg/ml of cultured medium, the “HBV virion DNA, day 3, mean” value (HBV; [4]) was 66.75 pg/ml of cultured medium and the “HBV virion DNA, day 6, mean” value (HBV; [4]) was 22.25 pg/ml of cultured medium. The “HBV virion DNA, day 9, mean” value (HBV; [4]) was 2.75 pg/ml of cultured medium, the “Intracellular HBV DNA on Day 10, Mono, mean” value (HBV; [4]) was 1.85 pg/μM of cellular DNA and the “Intracellular HBV DNA on Day 10, RI, mean” value (HBV; [4]) was 4.75 pg/μM of cellular DNA. It also gave an inhibition at 1 µM (HBV; [5]) of 1.19%, an inhibition (HBV; [6]) of 0.4% and an inhibition at 1 µM (HBV; [7]) of -1.54%. It also gave an inhibition (HBV; [8]) of -5.41%, an inhibition at 1 µM (HBV; [9]) of 71% and an inhibition (HBV; [10]) of 8.47%. It also gave an inhibition at 1 µM (HBV; [11]) of 96.3%, an inhibition (HBV; [12]) of 81.5% and an inhibition at 1 µM (HBV; [13]) of 26.7%. For the same compound, the inhibition at 1 µM (HBV; [14]) was 93.5%, the inhibition (HBV; [15]) was 6.93% and the inhibition (HBV; [16]) was 67.3%.
